Laboratory results published in ChEMBL document CHEMBL1154007, “Discovery and development of aurora kinase inhibitors as anticancer agents” (J Med Chem, 2009).
Counter-ions that a name gives are not always drawn.

Key:
[1] = biological target: Glycogen synthase kinase-3 beta (Homo sapiens, UniProt P49841); test: Inhibition of Gsk3beta
[2] = biological target: Proto-oncogene tyrosine-protein kinase Src (Homo sapiens, UniProt P12931); test: Inhibition of Src
COLO 205 = test: Antiproliferative activity against human COLO205 cells assessed as inhibition of thymidine uptake after 96 hrs; assay type: functional, cell-based; conditions: COLO 205, 96 h
Aurora kinase A = biological target: T1, Aurora kinase A (Homo sapiens, UniProt O14965)
T1 sequence (O14965 whole entry): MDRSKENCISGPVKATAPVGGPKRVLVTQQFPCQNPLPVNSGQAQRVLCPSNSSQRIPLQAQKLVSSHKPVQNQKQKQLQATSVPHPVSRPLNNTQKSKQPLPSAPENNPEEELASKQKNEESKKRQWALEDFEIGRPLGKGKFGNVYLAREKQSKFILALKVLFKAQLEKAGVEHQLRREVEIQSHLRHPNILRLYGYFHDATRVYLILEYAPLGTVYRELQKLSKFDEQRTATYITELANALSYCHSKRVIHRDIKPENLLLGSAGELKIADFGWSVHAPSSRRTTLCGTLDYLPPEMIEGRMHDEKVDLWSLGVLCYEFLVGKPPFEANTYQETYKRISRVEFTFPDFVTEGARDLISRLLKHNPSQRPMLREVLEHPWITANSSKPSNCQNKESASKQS

HCT-116 = test: Antiproliferative activity against human HCT116 cells assessed as BrdU incorporation after 72 hrs; assay type: functional, cell-based; conditions: HCT-116, 72 h
[3] = Drug level in tumor bearing mouse plasma at 30 mg/kg after 24 hrs; assay type: ADME, organism-based; set-up: dose 30 mg/kg; conditions: read-out: Activity
[4] = Drug level in tumor bearing mouse tumor at 30 mg/kg after 24 hrs; assay type: ADME, organism-based, Neoplasm; set-up: dose 30 mg/kg; conditions: read-out: Activity
Aurora kinase B [5] = biological target: T2, Aurora kinase B (Homo sapiens, UniProt Q96GD4); test: Inhibition of aurora B in human SW620 cells assessed as inhibition of histone H3 phosphorylation; assay type: cell-based, SW-620
T2 sequence (Q96GD4 whole entry): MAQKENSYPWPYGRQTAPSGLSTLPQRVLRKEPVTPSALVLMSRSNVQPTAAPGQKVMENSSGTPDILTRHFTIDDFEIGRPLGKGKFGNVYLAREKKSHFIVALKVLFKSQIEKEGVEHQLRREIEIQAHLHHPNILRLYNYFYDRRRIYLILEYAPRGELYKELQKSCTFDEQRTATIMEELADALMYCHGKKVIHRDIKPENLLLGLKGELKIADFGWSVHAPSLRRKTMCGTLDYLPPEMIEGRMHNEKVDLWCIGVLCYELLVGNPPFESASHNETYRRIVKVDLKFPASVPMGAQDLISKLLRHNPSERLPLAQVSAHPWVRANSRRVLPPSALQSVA

Aurora kinase B [6] = biological target: T2, Aurora kinase B; test: Inhibition of aurora B kinase
A2780 = test: Antiproliferative activity against human A2780 cells assessed as accumulation of 4N DNA; assay type: functional, cell-based
[7] = Clearance in iv infused tumor bearing mouse; assay type: ADME, organism-based; conditions: in vivo
[8] = Volume of distribution in iv infused tumor bearing mouse; assay type: ADME, organism-based; conditions: in vivo
[9] = Elimination half life in iv infused tumor bearing mouse; assay type: ADME, organism-based; conditions: in vivo, read-out: beta t1/2 (converted)
[10] = Aqueous solubility at pH 7.4; assay type: physicochemical
[11] = Half life in iv dosed rat; assay type: ADME, organism-based; conditions: in vivo
[12] = Bioavailability in […] rat; assay type: ADME, organism-based; conditions: in vivo
[13] = Toxicity in po dosed rat assessed at maximum tolerated dose after 2 weeks; assay type: organism-based; conditions: in vivo
Rattus norvegicus = organism: Rattus norvegicus; test: Antitumor activity in rat assessed as inhibition of tumor volume; assay type: functional
[14] = Volume of distribution at steady state in iv dosed rat; assay type: ADME, organism-based; conditions: in vivo, read-out: Vdss
[15] = Clearance in iv dosed rat; assay type: ADME, organism-based; conditions: in vivo
Homo sapiens = test: Drug elimination in human patient after 5 days of iv infusion; assay type: ADME, organism-based; conditions: in vivo, 120 h
[16] = biological target: Tyrosine-protein kinase Lck (Homo sapiens, UniProt P06239); test: Inhibition of Lck
Tyrosine-protein kinase Lck, sequence (P06239 whole entry): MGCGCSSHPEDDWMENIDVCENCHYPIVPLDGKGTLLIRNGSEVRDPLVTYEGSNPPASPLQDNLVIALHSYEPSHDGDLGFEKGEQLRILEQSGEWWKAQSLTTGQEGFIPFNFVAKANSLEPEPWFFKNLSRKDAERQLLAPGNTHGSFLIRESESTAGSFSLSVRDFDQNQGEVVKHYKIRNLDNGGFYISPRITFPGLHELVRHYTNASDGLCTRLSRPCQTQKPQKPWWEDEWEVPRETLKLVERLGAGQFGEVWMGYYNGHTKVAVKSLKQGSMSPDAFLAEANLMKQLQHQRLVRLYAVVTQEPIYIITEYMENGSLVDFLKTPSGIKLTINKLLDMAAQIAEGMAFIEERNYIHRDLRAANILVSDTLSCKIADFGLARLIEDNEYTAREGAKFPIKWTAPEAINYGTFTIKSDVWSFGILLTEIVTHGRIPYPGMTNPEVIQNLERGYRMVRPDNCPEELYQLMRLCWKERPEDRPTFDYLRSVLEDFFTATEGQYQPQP

Aurora kinase C = biological target: T3, Aurora kinase C (Homo sapiens, UniProt Q9UQB9); test: Inhibition of aurora C kinase
T3 sequence (Q9UQB9 whole entry): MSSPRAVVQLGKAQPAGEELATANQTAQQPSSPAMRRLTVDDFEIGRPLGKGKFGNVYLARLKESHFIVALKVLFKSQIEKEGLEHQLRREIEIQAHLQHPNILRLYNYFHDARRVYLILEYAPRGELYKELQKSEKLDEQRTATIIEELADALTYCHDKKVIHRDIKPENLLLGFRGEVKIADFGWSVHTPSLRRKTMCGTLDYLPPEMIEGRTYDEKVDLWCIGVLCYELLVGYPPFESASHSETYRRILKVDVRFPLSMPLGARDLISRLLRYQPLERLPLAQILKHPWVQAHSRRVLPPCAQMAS

Proto-oncogene tyrosine-protein kinase Src, sequence (P12931 2-536 limits assumed): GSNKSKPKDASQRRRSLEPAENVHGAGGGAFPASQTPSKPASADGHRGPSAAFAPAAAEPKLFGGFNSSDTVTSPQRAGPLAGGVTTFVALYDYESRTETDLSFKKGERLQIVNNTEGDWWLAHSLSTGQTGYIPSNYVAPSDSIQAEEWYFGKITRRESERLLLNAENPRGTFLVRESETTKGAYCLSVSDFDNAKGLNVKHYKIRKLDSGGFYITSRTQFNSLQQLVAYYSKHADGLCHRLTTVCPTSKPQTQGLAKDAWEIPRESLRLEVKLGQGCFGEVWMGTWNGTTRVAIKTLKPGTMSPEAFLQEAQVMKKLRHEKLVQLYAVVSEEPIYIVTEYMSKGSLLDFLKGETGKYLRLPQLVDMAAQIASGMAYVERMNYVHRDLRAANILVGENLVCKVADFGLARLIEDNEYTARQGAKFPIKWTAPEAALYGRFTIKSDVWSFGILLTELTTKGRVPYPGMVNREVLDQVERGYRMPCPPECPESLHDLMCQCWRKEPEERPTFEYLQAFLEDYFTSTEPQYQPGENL
Glycogen synthase kinase-3 beta, sequence (P49841 whole entry): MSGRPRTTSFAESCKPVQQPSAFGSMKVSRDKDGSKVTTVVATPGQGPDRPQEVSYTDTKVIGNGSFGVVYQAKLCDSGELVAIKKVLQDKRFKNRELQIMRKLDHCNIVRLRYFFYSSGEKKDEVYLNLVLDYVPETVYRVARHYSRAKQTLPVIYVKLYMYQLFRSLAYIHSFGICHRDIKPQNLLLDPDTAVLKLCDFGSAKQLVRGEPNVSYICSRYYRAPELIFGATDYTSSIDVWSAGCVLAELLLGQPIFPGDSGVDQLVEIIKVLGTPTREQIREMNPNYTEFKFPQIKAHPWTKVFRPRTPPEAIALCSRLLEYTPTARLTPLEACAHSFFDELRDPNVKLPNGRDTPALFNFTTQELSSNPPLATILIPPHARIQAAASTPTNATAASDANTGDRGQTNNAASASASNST

## Cc1cc(Nc2nc(-c3ccccc3)nc3ccccc23)n[nH]1
[1]
  Ki: 22 nM
[2]
  Ki: 81 nM
COLO 205
  IC50: 1400 nM
Aurora kinase A
  Ki: 58 nM

## CN1CCN(c2ccc(C(=O)Nc3n[nH]c4c3CN(C(=O)Cc3cccs3)C4)cc2)CC1
HCT-116
  IC50: 570 nM

## O=C(O)c1ccc(Nc2ncc3c(n2)-c2ccc(Cl)cc2C(c2c(F)cccc2F)=NC3)cc1 [MLN-8054]
[3]
  concentration at 24 h: > 1000 nM
[4]
  concentration at 24 h: > 2000 nM

## COc1cc2c(Nc3cc(CC(=O)Nc4cccc(F)c4F)[nH]n3)ncnc2cc1OCCCN(CCO)CC(C)C
Aurora kinase B [5]
  IC50: < 1 nM
Aurora kinase B [6]
  IC50: < 1 nM
Aurora kinase A
  IC50: 18 nM

## CO[C@@H](C(=O)N1Cc2n[nH]c(NC(=O)c3ccc(N4CCN(C)CC4)cc3)c2C1)c1ccccc1 [DANUSERTIB]
A2780
  IC50: 28000 nM
[7]
  clearance: 28.3 mL/min/kg
[8]
  Vd: 2.7 L/kg
[9]
  half-life: 3.7 h

## COc1cc2c(Nc3ncc(CC(=O)Nc4ccccc4)s3)ncnc2cc1OCCCN1CCOCC1
Aurora kinase B [6]
  IC50: < 1 nM
Aurora kinase A
  IC50: < 1 nM

## COc1cc2c(Nc3nc(C(=O)Nc4ccccc4)cs3)ncnc2cc1OCCCN1CCOCC1
Aurora kinase B [6]
  IC50: 530 nM
Aurora kinase A
  IC50: 182 nM

## O=C(Nc1ccccc1)Nc1ncc(CCNc2ncnc3ccsc23)s1
HCT-116
  EC50: 45 nM

## CCC(=O)Nc1ccc(Sc2nc(Nc3cc(C)n[nH]3)cc(N3CCNCC3)n2)cc1
COLO 205
  IC50: 79 nM
[10]
  solubility: 296 µM
Aurora kinase B [6]
  IC50: 18 nM
Aurora kinase A
  IC50: 3.7 nM

## CC(C)(C)c1ccc(C(=O)Nc2n[nH]c3c2CN(C(=O)Cc2cccs2)C3)cc1
HCT-116
  IC50: 2000 nM

## O=C(Nc1c[nH]nc1-c1nc2cc(CN3CCOCC3)ccc2[nH]1)NC1CC1 [AT-9283]
Aurora kinase B [6]
  IC50: 3 nM

## CCN(CCO)CCCOc1cc2ncnc(Nc3cc(CC(=O)Nc4cccc(F)c4)[nH]n3)c2cc1OC
Aurora kinase B [5]
  IC50: 270 nM
Aurora kinase B [6]
  IC50: 1 nM
Aurora kinase A
  IC50: 190 nM

## CC(=O)Nc1ccc(Sc2nc(Nc3cc(C)n[nH]3)c3ccccc3n2)cc1
[11]
  half-life: 1 h
[12]
  bioavailability: 44%
[13]
  MTD at 336 h: 300 mg/kg
Rattus norvegicus
  inhibition (INH): 50%
[1]
  Ki: 1030 nM
[2]
  Ki: 1260 nM
COLO 205
  IC50: 480 nM
[14]
  Vd: 0.38 L/kg
Aurora kinase B [6]
  Ki: 27 nM
[15]
  clearance: 7 mL/min
Aurora kinase A
  Ki: 4 nM

## CCN(CCO)CCCOc1ccc2c(Nc3cc(CC(=O)Nc4cccc(F)c4F)[nH]n3)ncnc2c1
Aurora kinase B [6]
  IC50: 7.5 nM
Aurora kinase A
  IC50: 800 nM

## CCC(=O)Nc1ccc(Sc2nc(Nc3cc(C)n[nH]3)cc(N3CCN(C(C)(C)C)CC3)n2)cc1
COLO 205
  IC50: 2 nM
[10]
  solubility: 221 µM
Aurora kinase B [6]
  IC50: 11 nM
Aurora kinase A
  IC50: 1.3 nM

## CCC(=O)Nc1ccc(Sc2nc(Nc3cc(C)n[nH]3)cc(N3CCN(CC)CC3)n2)cc1
COLO 205
  IC50: 24 nM
[10]
  solubility: 114 µM
Aurora kinase B [6]
  IC50: 25 nM
Aurora kinase A
  IC50: < 1 nM

## CCC(=O)Nc1ccc(Sc2nc(Nc3cc(C)n[nH]3)cc(N3CCN(C4CC4)CC3)n2)cc1
COLO 205
  IC50: 75 nM
[10]
  solubility: 12.8 µM
Aurora kinase B [6]
  IC50: 9.5 nM
Aurora kinase A
  IC50: < 1 nM

## O=C(Nc1cccc(C(F)(F)F)c1)Nc1ncc(CCNc2ncnc3ccsc23)s1
HCT-116
  EC50: 13 nM

## COc1cc2c(Nc3cnc(NC(=O)c4ccccc4)nc3)ncnc2cc1OCCCN1CCOCC1
Aurora kinase B [6]
  IC50: 1 nM

## COc1cc2c(Nc3ccc(C(=O)Nc4ccccc4)s3)ncnc2cc1OCCCN1CCOCC1
Aurora kinase B [6]
  IC50: 57 nM
Aurora kinase A
  IC50: 11 nM

## CCC(=O)Nc1ccc(Sc2nc(Nc3cc(C)[nH]n3)cc(N3CCN(C)CC3)n2)cc1
COLO 205
  IC50: 24 nM
[10]
  solubility: 63.4 µM
Aurora kinase B [6]
  IC50: 20 nM
Aurora kinase A
  IC50: 1.6 nM

## Cc1cc(Nc2cc(N3CCN(C)CC3)nc(Sc3ccc(NC(=O)C4CC4)cc3)n2)[nH]n1 [TOZASERTIB]
Homo sapiens
  Activity: 75%

## COc1cc2c(Nc3ncc(C(=O)Nc4ccccc4)s3)ncnc2cc1OCCCN1CCOCC1
Aurora kinase B [6]
  IC50: 42 nM
Aurora kinase A
  IC50: 4 nM

## COc1cc(Nc2ncc3c(n2)-c2ccc(Cl)cc2C(c2c(F)cccc2OC)=NC3)ccc1C(=O)O [ALISERTIB]
[16]
  IC50: 320 nM

## Cc1nc(N)sc1-c1ccnc(Nc2ccc(N3CCOCC3)cc2)n1 [CYC-116]
Aurora kinase C
  IC50: 65 nM

## O=C(Nc1cccc(Cl)c1)Nc1ncc(CCNc2ncnc3ccsc23)s1 [SNS-314 MESYLATE]
HCT-116
  EC50: 6 nM

## CCC(=O)Nc1ccc(Sc2nc(Nc3cc(C)n[nH]3)cc(N3CCCCC3)n2)cc1
COLO 205
  IC50: 400 nM
[10]
  solubility: 2.5 µg/mL
Aurora kinase B [6]
  IC50: 8 nM
Aurora kinase A
  IC50: 1.6 nM

## CCN(CCCOc1ccc2c(Nc3cc(CC(=O)Nc4cccc(F)c4)n[nH]3)ncnc2c1)CCOP(=O)(O)O [BARASERTIB]
[11]
  half-life: 5 h
[15]
  clearance: 14 mL/min/kg

## CCCN(CCO)CCCOc1cc2ncnc(Nc3cc(CC(=O)Nc4cccc(F)c4)[nH]n3)c2cc1OC
Aurora kinase B [5]
  IC50: 290 nM
Aurora kinase B [6]
  IC50: 2 nM
Aurora kinase A
  IC50: 220 nM

## CCN(CCO)CCCOc1cc2ncnc(Nc3cc(CC(=O)Nc4cccc(F)c4F)[nH]n3)c2cc1OC
Aurora kinase B [5]
  IC50: 45 nM
Aurora kinase B [6]
  IC50: < 1 nM
Aurora kinase A
  IC50: 360 nM

## CCC(=O)Nc1ccc(Sc2nc(Nc3cc(C)n[nH]3)cc(N3CCOCC3)n2)cc1
COLO 205
  IC50: 135 nM
[10]
  solubility: 5.4 µM
Aurora kinase B [6]
  IC50: 14 nM
Aurora kinase A
  IC50: 1.7 nM
